Reference: ChEMBL document CHEMBL1142280, “Discovery of new small molecules that influence neuroblast cell migration from the subventricular zone” (2008)
Active and inactive are the calls of the source. No cut-off for these calls is given here.

Assays:
[1] = Inhibition of mouse neuroblast cell migration from subventricular zone tissue explants at 154 uM after 48 hrs relative to control; type: functional
[2] = species: Mus musculus; experiment: (§1) Inhibition of mouse neuroblast cell migration from subventricular zone tissue explants at 63 uM after 48 hrs relative to control; type: functional
[3] = Inhibition of mouse neuroblast cell migration from subventricular zone tissue explants at 123 uM after 48 hrs relative to control; type: functional
[4] = species: Mus musculus; experiment: Inhibition of mouse neuroblast cell migration from subventricular zone tissue explants at 12.3 uM after 48 hrs relative to control; type: functional
[5] = species: Mus musculus; experiment: Inhibition of mouse neuroblast cell migration from subventricular zone tissue explants at 67 uM after 48 hrs relative to control; type: functional
[6] = Inhibition of mouse neuroblast cell migration from subventricular zone tissue explants at 139 uM after 48 hrs relative to control; type: functional
[7] = species: Mus musculus; experiment: Inhibition of mouse neuroblast cell migration from subventricular zone tissue explants at 13.9 uM after 48 hrs relative to control; type: functional
[8] = as §1; type: functional
[9] = Inhibition of mouse neuroblast cell migration from subventricular zone tissue explants at 223 uM after 48 hrs relative to control; type: functional
[10] = Inhibition of mouse neuroblast cell migration from subventricular zone tissue explants at 224 uM after 48 hrs relative to control; type: functional
[11] = species: Mus musculus; experiment: Inhibition of mouse neuroblast cell migration from subventricular zone tissue explants at 22 uM after 48 hrs relative to control; type: functional
[12] = species: Mus musculus; experiment: Inhibition of mouse neuroblast cell migration from subventricular zone tissue explants at 6.8 uM after 48 hrs relative to control; type: functional
[13] = species: Mus musculus; experiment: Reversal of inhibition of mouse neuroblast cell migration from subventricular zone tissue explants in presence of PR21; type: functional
[14] = species: Mus musculus; experiment: Inhibition of mouse neuroblast cell migration from subventricular zone tissue explants after 24 hrs; type: functional
[15] = Inhibition of mouse neuroblast cell migration from subventricular zone tissue explants at 34 uM after 48 hrs relative to control; type: functional
[16] = species: Mus musculus; experiment: Inhibition of PR21-stimulated mouse neuroblast cell migration from subventricular zone tissue explants after 24 hrs; type: functional
[17] = Inhibition of mouse neuroblast cell migration from subventricular zone tissue explants at 68 uM after 48 hrs relative to control; type: functional
[18] = Inhibition of mouse neuroblast cell migration from subventricular zone tissue explants at 250 uM after 48 hrs relative to control
[19] = species: Mus musculus; experiment: Inhibition of mouse neuroblast cell migration from subventricular zone tissue explants at 100 uM after 48 hrs relative to control; type: functional

O=C(NCCCCCCNC(=O)c1ccccc1)c1ccccc1
inhibition at 154 µM [1]: 50%

c1cc(CN2CCCNCCNCCCNCC2)ccc1CN1CCCNCCNCCCNCC1
Activity [2]: inactive

c1ccc(CNCCSSCCNCc2ccccc2)cc1
inhibition at 123 µM [3]: 100%
Activity [4]: inactive

C1CNCCNCCCN(CCCCN2CCCNCCNCCCNCC2)CCNC1
Activity [5]: inactive

c1ccc(CN2CCCNCCNCCCNCC2)c(CN2CCCNCCNCCCNCC2)c1
Activity [2]: inactive

O=C(NCCSSCCNC(=O)c1ccccc1)c1ccccc1
inhibition at 139 µM [6]: 100%
Activity [7]: inactive

c1cc(CN2CCCNCCNCCCNCC2)cc(CN2CCCNCCNCCCNCC2)c1
inhibition at 63 µM [8]: 10%

NCCSSCCN [CYSTAMINE]
inhibition at 223 µM [9]: 33%

C1CNCCNCCNCCN1
inhibition at 224 µM [10]: 19%
Activity [11]: inactive

O=C(c1ccc(C(=O)N2CCCNCCNCCCNCC2)cc1)N1CCCNCCNCCCNCC1
Activity [5]: inactive

COc1ccccc1CNCCCCCCNCCSSCCNCCCCCCNCc1ccccc1OC [BENEXTRAMINE]
Activity [12]: inactive
Activity [13]: Active
Activity [14]: Active
inhibition at 34 µM [15]: 45%
Activity [16]: Active
inhibition at 68 µM [17]: 100%

C1CNCCNCCCN(CC2CCC(CN3CCCNCCNCCCNCC3)CC2)CCNC1 (configuration not stated)
Activity [2]: inactive

C1CNCCNCCCNCCNC1
inhibition at 250 µM [18]: 20%

CC(CNCCCCCN)SSC(C)CNCCCCCN (configuration not stated)
Activity [19]: inactive
